{"source": "patent US20170008888A1", "about": "(KYORIN PHARMACEUTICAL CO., LTD., priority 2014, published 2017)", "tested_on": "TLR2 signaling in primary human umbilical vein endothelial cells", "assay": "Cytokine response to TLR2 agonism (Pam3CysK4) in primary HUVEC (ELISA)", "format": "cell-based", "settings": "for IL-8: 5 μM inhibitor", "text": "It has been reported in the literature that that ERK5 mediates TLR2-dependent inflammatory signaling in several cell types including human umbilical vein endothelial cells (HUVEC). See Wilhelmsen et al., J Biol Chem. 2012; 287:26478-94. Wilhelmsen et al. further reported that MEK1 negatively regulates TLR2 signaling in HUVECs, with pharmacological inhibition of MEK1 augmenting (IL-6, G-CSF, GM-CSF) or not changing (IL-8) pro-inflammatory cytokine release in response to TLR2 stimulation.\nIn this example, the following commercially available inhibitors were tested:\nThe results were compared with test compound 61.\nPooled primary human umbilical vein endothelial cells (HUVEC) were obtained from Lonza (Allendale, N.J.) and maintained in either complete EGM-2 defined media (Lonza) or Medium 200 supplemented with Low Serum Growth Supplement (Life Technologies, Grand Island, N.Y.). Cells at low passage (<5) were seeded at 4e5 cells/ml and allowed to adhere overnight at 37° C. in a humidified atmosphere at 5% CO2. Cells were pre-treated with test compounds for 1 h prior to TLR2 or TLR4 stimulation. To test for the effects of TLR2 agonism, the TLR2 agonist peptide Pam3CysK4 (Santa Cruz Biotechnology, Dallas, Tex.) was used at 10 μg/ml. PHC-SKKK (Enzo Life Sciences, Farmingdale, N.Y.) served as the negative control peptide. To test for the effects of TLR4 agonism, LPS from E. coli 0111:B4 (EMD Millipore, Billerica, Mass.) was used at 100 ng/ml. Cells were incubated for 22 hr, after which the supernatant was collected and analyzed for cytokine concentrations by ELISA (Life Technologies). Absorbance at 450 nm was read using the Wallac 1420 Victor^2 multilabel microplate reader (Perkin Elmer, Waltham, Mass.).", "data": [{"smiles": "CCOc1cc(C(=O)N2CCC(N3CCN(C)CC3)CC2)ccc1Nc1cc2c(cn1)N(C)C(=O)c1ccccc1N2C", "note": "[Compound 61]", "values": [{"measurement": "IL-8", "setting": "+10 μg/ml PHC-SKKK (negative control peptide), 22 hr", "value": "0 ± 17", "unit": "pg/mL"}, {"measurement": "IL-8", "setting": "+10 μg/ml Pam3CysK4, 22 hr", "value": "133 ± 9", "unit": "pg/mL"}, {"measurement": "IL-8 response to TLR2 (Pam3CysK4) stimulation, in words", "setting": "summary of Table 22", "value": "reduced the IL-8 response"}]}]}
